Data set [1] is described as follows: AUCtot in CD-1 mouse at 3 mg/kg, po by LC/MS analysis. Type of data set: ADME, organism-based. Also noted: time AUCmax, route oral, dose 3 mg/kg. Particulars: in vivo.
Another data set addresses T1, Thyroid peroxidase (Homo sapiens, UniProt P07202).
T1 sequence (P07202 whole entry): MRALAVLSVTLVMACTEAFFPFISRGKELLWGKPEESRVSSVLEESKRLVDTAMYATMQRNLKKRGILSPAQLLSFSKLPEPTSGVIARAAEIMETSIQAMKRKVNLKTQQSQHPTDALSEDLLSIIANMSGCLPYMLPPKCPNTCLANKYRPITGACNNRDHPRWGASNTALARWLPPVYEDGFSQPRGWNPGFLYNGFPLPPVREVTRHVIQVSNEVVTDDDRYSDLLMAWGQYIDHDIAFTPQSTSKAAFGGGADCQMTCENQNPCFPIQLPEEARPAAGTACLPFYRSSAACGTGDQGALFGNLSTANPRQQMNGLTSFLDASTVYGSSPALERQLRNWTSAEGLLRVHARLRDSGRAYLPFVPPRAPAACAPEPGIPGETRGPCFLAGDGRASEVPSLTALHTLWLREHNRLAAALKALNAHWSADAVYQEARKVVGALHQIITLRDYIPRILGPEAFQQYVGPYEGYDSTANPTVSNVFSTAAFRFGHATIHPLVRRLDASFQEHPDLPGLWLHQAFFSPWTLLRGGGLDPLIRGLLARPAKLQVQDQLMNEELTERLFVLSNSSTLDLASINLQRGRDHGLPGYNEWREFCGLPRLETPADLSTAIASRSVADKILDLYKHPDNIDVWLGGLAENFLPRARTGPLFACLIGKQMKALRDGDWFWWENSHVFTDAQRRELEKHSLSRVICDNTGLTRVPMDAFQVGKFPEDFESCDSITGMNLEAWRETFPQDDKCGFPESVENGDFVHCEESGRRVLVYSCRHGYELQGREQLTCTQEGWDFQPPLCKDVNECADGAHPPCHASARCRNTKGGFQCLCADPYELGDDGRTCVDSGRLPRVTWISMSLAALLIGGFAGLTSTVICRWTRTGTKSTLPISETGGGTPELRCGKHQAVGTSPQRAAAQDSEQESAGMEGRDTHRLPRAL
The data set is described as follows: Inhibition of TPO (unknown origin) using 3-iodo tyrosine as substrate incubated for 10 mins.

A short description of data set [2]: Plasma concentration in human MPO transgenic thioglycollate-induced peritonitis mouse model at 10 mg/kg, po measured after 6 hrs by LC/MS analysis. Type of data set: ADME, organism-based.
The next data set concerns the target T2, Cytochrome P450 2B6 (Homo sapiens, UniProt P20813).
T2 sequence (P20813 whole entry): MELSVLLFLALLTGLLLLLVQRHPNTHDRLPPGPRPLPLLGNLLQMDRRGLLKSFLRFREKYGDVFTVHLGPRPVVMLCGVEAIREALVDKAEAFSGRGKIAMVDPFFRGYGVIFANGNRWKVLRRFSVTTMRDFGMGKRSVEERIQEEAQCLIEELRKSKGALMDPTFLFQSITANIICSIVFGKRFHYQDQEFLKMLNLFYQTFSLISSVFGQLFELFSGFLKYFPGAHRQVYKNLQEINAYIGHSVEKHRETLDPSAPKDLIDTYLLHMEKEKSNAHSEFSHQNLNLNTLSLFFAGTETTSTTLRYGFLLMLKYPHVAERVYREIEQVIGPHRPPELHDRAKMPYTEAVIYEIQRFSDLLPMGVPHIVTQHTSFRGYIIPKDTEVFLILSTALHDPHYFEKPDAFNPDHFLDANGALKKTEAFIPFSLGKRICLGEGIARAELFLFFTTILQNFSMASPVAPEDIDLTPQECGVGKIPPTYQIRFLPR
The data set is described as follows: Inhibition of CYP2B6 (unknown origin). Type of data set: ADME.

The target in a further data set is T3, Cytochrome P450 1A2 (Homo sapiens, UniProt P05177).
T3 sequence (P05177 whole entry): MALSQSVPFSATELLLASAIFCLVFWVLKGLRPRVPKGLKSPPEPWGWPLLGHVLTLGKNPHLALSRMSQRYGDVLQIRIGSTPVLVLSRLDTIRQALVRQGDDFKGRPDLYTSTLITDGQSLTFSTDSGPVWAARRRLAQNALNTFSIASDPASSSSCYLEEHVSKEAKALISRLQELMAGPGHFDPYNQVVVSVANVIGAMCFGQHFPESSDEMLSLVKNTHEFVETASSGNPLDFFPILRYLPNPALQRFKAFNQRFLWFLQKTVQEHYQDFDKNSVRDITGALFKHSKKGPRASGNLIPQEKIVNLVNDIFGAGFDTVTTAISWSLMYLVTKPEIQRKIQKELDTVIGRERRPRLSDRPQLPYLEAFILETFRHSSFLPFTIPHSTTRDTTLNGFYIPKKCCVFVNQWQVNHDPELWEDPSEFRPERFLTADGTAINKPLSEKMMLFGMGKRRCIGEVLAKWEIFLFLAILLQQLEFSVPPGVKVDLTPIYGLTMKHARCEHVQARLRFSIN
The data set is described as follows: Inhibition of CYP1A2 (unknown origin). Type of data set: ADME.

A short description of data set [3]: Metabolic stability in mouse liver microsomes assessed as compound remaining. Type of data set: ADME, Microsome.
Data set [4] is described as follows: Permeability of compound at pH 5.5 by PAMPA assay. The data set is classed as ADME. Particulars: read-out: permeability.
In another data set the target is Cytochrome P450 2D6 (Homo sapiens, UniProt P10635). As to the kind of experiment: Inhibition of CYP2D6 (unknown origin). Type of data set: ADME.
Cytochrome P450 2D6, sequence (P10635 whole entry): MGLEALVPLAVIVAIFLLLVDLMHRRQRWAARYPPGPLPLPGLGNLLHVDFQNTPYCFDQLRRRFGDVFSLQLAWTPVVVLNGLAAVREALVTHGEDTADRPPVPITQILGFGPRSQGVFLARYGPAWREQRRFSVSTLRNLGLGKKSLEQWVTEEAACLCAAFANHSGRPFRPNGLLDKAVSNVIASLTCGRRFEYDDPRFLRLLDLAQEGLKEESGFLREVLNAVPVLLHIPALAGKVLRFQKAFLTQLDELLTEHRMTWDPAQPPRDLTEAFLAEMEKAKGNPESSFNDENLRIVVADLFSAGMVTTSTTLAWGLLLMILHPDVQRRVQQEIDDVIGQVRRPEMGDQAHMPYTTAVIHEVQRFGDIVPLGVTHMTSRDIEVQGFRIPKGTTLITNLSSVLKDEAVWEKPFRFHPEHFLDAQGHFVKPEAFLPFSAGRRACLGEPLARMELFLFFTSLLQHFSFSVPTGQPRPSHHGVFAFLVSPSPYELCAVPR
Another data set addresses T4, Cytochrome P450 2C8 (Homo sapiens, UniProt P10632).
T4 sequence (P10632 whole entry): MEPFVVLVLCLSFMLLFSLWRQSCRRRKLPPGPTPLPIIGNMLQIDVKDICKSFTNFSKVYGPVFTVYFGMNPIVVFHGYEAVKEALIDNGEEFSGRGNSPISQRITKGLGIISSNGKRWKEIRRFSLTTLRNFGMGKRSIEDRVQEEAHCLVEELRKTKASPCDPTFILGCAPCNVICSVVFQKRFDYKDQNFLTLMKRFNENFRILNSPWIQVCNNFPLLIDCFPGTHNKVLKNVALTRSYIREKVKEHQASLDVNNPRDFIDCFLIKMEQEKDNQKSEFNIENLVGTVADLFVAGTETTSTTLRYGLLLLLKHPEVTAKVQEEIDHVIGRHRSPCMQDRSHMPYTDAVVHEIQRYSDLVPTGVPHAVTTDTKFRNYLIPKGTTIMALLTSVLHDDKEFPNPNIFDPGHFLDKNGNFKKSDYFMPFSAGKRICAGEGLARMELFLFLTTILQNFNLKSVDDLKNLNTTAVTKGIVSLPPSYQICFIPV
As to the kind of experiment: Inhibition of CYP2C8 (unknown origin). The data set is classed as ADME.

The next data set deals with Cytochrome P450 3A4 (Homo sapiens, UniProt P08684). The data set is described as follows: Inhibition of CYP3A4 (unknown origin). The data set is classed as ADME.
Cytochrome P450 3A4, sequence (P08684 whole entry): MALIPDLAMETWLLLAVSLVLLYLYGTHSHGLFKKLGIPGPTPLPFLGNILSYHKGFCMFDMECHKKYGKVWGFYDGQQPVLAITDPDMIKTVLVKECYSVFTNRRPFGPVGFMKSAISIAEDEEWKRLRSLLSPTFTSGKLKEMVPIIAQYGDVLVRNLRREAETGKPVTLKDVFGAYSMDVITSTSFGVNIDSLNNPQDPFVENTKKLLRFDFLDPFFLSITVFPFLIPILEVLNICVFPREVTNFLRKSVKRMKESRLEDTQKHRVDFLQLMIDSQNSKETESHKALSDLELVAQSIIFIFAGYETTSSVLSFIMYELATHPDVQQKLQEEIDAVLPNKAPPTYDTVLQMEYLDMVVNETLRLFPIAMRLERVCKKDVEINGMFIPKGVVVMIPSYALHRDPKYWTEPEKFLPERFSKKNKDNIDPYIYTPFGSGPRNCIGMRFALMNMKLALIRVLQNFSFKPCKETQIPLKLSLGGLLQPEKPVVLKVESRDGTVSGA
Data set [5] is described as follows: Protein binding in human plasma assessed as free fraction. Type of data set: ADME, cell-free.
Data set [6] in a line: Dissociation constant, pKa of the compound. The data set is classed as physicochemical.

Each structure is given as a SMILES string.

For the compound `Nc1cc(Cc2ccccc2)c2nn[nH]c2n1`, the AUC in [1] came to 47.9 µM·h. For the same compound, the IC50 at Thyroid peroxidase is 2200 nM; against Cytochrome P450 2B6 it was over 10 µM; on Cytochrome P450 1A2, over 10 µM; against Cytochrome P450 2D6, over 10 µM; on Cytochrome P450 2C8 it was over 10 µM; at Cytochrome P450 3A4, 6.6 µM. In data set [2], the concentration at 6 h came to 7 µM. Besides, the Stabilty in [3] is 39%. In data set [4], the Papp is 42.7 ×10⁻⁶ cm/s. In addition, in data set [5], the fraction unbound came out at 0.17. This compound came in with a pKa in [6] of 7.4.
